Ends that are not written are not given here.
Tests used:
[1] = tested on: HeLa cells; assay type: cell-based; conditions: 24 h, alamarBlue
Procedure: (§1) Peptide cytotoxicity. In vitro cytotoxicity was measured using the 3D EpiDerm skin tissues and HeLa Cells using a fluorescent reporter of cell viability, alamarBlue (ThermoFisher Scientific). 3D EpiDerm skin tissues (MatTek EPI-200-AFAB) were transferred to a 12 well plate containing 600 μL of AFAB-assay medium supplemented with 10% v/v alamarBlue. […] HeLa cells were seeded in a 96-well plate (2×10^4 cells/per well) and incubated overnight at 37° C. and 5% CO2 in a humidified incubator to prepare wells at ˜50% confluency of adherent cells. After the incubation, spent DMEM was removed and cells were washed with PBS. alamarBlue-containing medium was prepared by mixing Phenol Red-free DMEM with alamarBlue solution at a 9:1 ratio and a 180 μl volume was added to each well. Cells were treated with peptides varying from 3.25 to 200 μg/mL and then incubated for 24 h. The fluorescence intensities of treated cultures were normalized to values measured for an untreated control group. After the 24 h incubation period, alamarBlue fluorescence was measured at 590 nm upon excitation at 560 nm using Varioskan Lux plate reader (Thermo Scientific) plate reader.

[2] = tested on: panel of 7 MRSA strains; assay type: cell-based, Staphylococcus aureus
Procedure: The antibiotic effect of STIP3-29 was bactericidal (FIG. 3). […] Some proportion of bacterial cells escaped treatment, remaining dormant. Indeed, strain-dependent persister cells, capable of escaping a variety of therapeutic agents, have been described for S. aureus^47.
Measurement of bactericidal activity. […] For S. aureus, an overnight culture was diluted to an OD of 5×10^−7 in 2 ml of MH broth supplemented with the appropriate concentration of peptide. Sterile water was added to control cultures. Standing cultures were incubated at 37° C. and 100 μl volume aliquots were removed at 60 min time intervals for 8 h. These aliquots were plated on agar plates to measure the colony forming units (CFUs) that remained viable upon treatment. Control aliquots from the same time intervals were diluted before plating to accurately enumerate increasing CFU counts. Counts were performed from plates that were incubated at 37° C. overnight. A plot of CFU/ml against time was used to illustrate and evaluate the time dependent killing. The same procedure was followed for C. albicans except that YPD broth and a cultivation temperature of 30° C. was employed.

[3] = tested on: S. pseudintermedius canine isolate MSSP42; test: MIC, broth dilution; assay type: cell-based, Staphylococcus pseudintermedius
Procedure: (§2) MIC determination. MICs were measured using peptides with 95% purity. For bacterial studies, cation-adjusted Mueller Hinton (MH) broth was used as the growth medium whereas Yeast Peptone Dextrose (YPD; 10 g/L yeast extract, 20 g/L peptone, 20 g/L dextrose) was used for Candida spp. and other yeast. Microorganisms were diluted to an optical density of […] in MH or YPD broth and a 180 μl volume was mixed with 20 μl of peptide arrayed as a 2-fold dilution series in a flat-bottom 96-well microtitre plate. A control was performed using 20 μl of sterile water. Plates were incubated as standing cultures overnight at 37° C.
(§3) Determination of minimum inhibitory concentrations. The MICs were measured for bioactive peptides identified from the initial screen. For bacterial studies, cation-adjusted Mueller Hinton (MH) broth was used as the growth medium whereas YPD was used for C. albicans. Bacterial cultures were diluted to a OD value of 6×10^−4 in MH broth and a 180 μl volume was mixed with 20 μl of peptide arrayed as 2-fold dilution series in a 96-well plate. For the positive control, 20 μl of sterile water was used. Plates were incubated as standing cultures overnight at 37° C. The lowest peptide concentration that resulted no observed microbial growth after an overnight treatment was defined as the MIC.

[4] = tested on: S. pseudintermedius canine isolate MRSP16; test: MIC, broth dilution; assay type: cell-based, Staphylococcus pseudintermedius
Procedure: as §2, §3

[5] = tested on: S. pseudintermedius human isolate SPC020 (MSSR); test: MIC, broth dilution; assay type: cell-based, Staphylococcus pseudintermedius
Procedure: as §2, §3

[6] = tested on: S. pseudintermedius human isolate SPC001 (MSSP); test: MIC, broth dilution; assay type: cell-based, Staphylococcus pseudintermedius
Procedure: as §2, §3

[7] = tested on: S. pseudintermedius canine isolate MRSP24; test: MIC, broth dilution; assay type: cell-based, Staphylococcus pseudintermedius
Procedure: as §2, §3

[8] = tested on: S. pseudintermedius human isolate SPC002 (MSSP); test: MIC, broth dilution; assay type: cell-based, Staphylococcus pseudintermedius
Procedure: as §2, §3

[9] = tested on: MRSA ATCC 33592; test: DiSC3(5) membrane polarization assay; assay type: cell-based, Staphylococcus aureus; conditions: 1.56 to 25 μg/mL
Procedure: Membrane disruption and depolarization are commonly reported mechanisms of AMP action. Two indirect assays that rely on fluorescent dyes were employed to assess the interaction of STIP3-29 and D-STIP3-29 with bacterial membranes. First, changes to SYTOX fluorescence was measured when MRSA ATCC 33592 was treated with increasing peptide concentrations ranging from one fourth to four-fold the MIC. […] Next, DiSC3(5), a cationic dye that binds to polarized membranes was used to report on possible depolarization related to AMP treatment. […] Thus, without wishing to be bound by theory, a more conservative explanation of the results is that the cationic peptides increase membrane permeability to SYTOX and that the like-charge of the AMPs to the reporter of polarization may confound the interpretation of the indirect assay. For example, the AMPs may simply displace the self-quenching DiSC3(5) molecules from the membrane surface without causing depolarization.

[10] = Circular dichroism spectroscopy; assay type: physicochemical; conditions: CD, 50% (v/v) TFE
Method in brief: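 Secondary structure of peptides dissolved in water at 0.3–0.5 mg/mL was assessed by CD. Spectra were recorded from 180 to 260 nm at room temperature in a 0.1 cm quartz cuvette; water and 50% (v/v) TFE conditions were compared.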

[11] = tested on: 3D EpiDerm skin tissues; test: Peptide cytotoxicity, 3D EpiDerm skin tissues, alamarBlue; assay type: cell-based, human; conditions: 250 μg/mL, 24 h
Procedure: as §1

## TVGGLVKWILKTVKKFA-NH2 [STIP3-29, TVGGLVKWILKTVKKFA-NH2]
[1]
  IC50, HeLa cell survival: 56 ± 1 µg/mL
[2]; 12.5 μg/mL (2-fold MIC), within the first 4 hours, panel of 7 MRSA strains
  treated bacteria killed: ~99%
[2]; in words
  antibiotic effect: bactericidal
[3]
  MIC: 3.13 µg/mL
[4]
  MIC: 3.13 µg/mL
[5]
  MIC: 3.13 µg/mL
[6]
  MIC: 3.13 µg/mL
[7]
  MIC: 3.13 µg/mL
[8]
  MIC: 3.13 µg/mL
[9]
  DiSC3(5) fluorescence change: dose-dependent increase in fluorescence
[10]
  α helicity (%): 61%
[11]
  indirect measure of tissue health (alamarBlue): appeared to be unaffected

Reference: US12370235B2, “Synthetic, non-natural antimicrobial peptides inspired by Staphylococcus auricularis delta toxin” (University of Saskatchewan, priority 2021, dated 2025)
